Tested on: 945468-187-T-J2-PDC spheroids viability
Assay: Anticancer human tumor 945468-187-T-J2-PDC patient-derived rectal carcinoma cell line growth inhibition [PI3K]
Details: spheroids with HUVEC and MSC; for IC50: curve of first compound; for viability, T/C: stronger effect = lower value; active = viability on the fitted dose curve at most 10% of control; inactive = the rest
Outline: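 Tumor cells grown as multi-cell spheroids with HUVEC endothelial cells and MSC fibroblast-like stroma were treated with targeted agents combined with inavolisib, alpelisib, duvelisib or copanlisib. Doses fell in half-log steps from near clinical Cmax, else from 10 microM. Viability was measured.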

[1] = second compound 0.00316 µM, first compound 0.0316 µM
[2] = second compound 0.00316 µM, first compound 0.1 µM
[3] = second compound 0.00316 µM, first compound 0.316 µM
[4] = second compound 0.00316 µM, first compound 1 µM
[5] = second compound 0.00316 µM, first compound 3.16 µM
[6] = second compound 0.00316 µM, first compound 10 µM
[7] = second compound 0.01 µM, first compound 0.0316 µM
[8] = second compound 0.01 µM, first compound 0.1 µM
[9] = second compound 0.01 µM, first compound 0.316 µM
[10] = second compound 0.01 µM, first compound 1 µM
[11] = second compound 0.01 µM, first compound 3.16 µM
[12] = second compound 0.01 µM, first compound 10 µM
[13] = second compound 0.0316 µM, first compound 0.0316 µM
[14] = second compound 0.0316 µM, first compound 0.1 µM
[15] = second compound 0.0316 µM, first compound 0.316 µM
[16] = second compound 0.0316 µM, first compound 1 µM
[17] = second compound 0.0316 µM, first compound 3.16 µM
[18] = second compound 0.0316 µM, first compound 10 µM
[19] = second compound 0.1 µM, first compound 0.0316 µM
[20] = second compound 0.1 µM, first compound 0.1 µM
[21] = second compound 0.1 µM, first compound 0.316 µM
[22] = second compound 0.1 µM, first compound 1 µM
[23] = second compound 0.1 µM, first compound 3.16 µM
[24] = second compound 0.1 µM, first compound 10 µM
[25] = second compound 0.316 µM, first compound 0.0316 µM
[26] = second compound 0.316 µM, first compound 0.1 µM
[27] = second compound 0.316 µM, first compound 0.316 µM
[28] = second compound 0.316 µM, first compound 1 µM
[29] = second compound 0.316 µM, first compound 3.16 µM
[30] = second compound 0.316 µM, first compound 10 µM
[31] = second compound 1 µM, first compound 0.0316 µM
[32] = second compound 1 µM, first compound 0.1 µM
[33] = second compound 1 µM, first compound 0.316 µM
[34] = second compound 1 µM, first compound 1 µM
[35] = second compound 1 µM, first compound 3.16 µM
[36] = second compound 1 µM, first compound 10 µM
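Also: spheroids exposed to compounds for seven days before reading.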

C#Cc1c(F)ccc2cc(O)cc(-c3ncc4c(N5CC6CCC(C5)N6)nc(OCC56CCCN5CC(F)C6)nc4c3F)c12 (stereo unspecified) + COc1c(OCCCN2CCOCC2)ccc2c3n(c(=NC(=O)c4cnc(N)nc4)nc12)CCN3
< 0.0316 µM: IC50 (second compound 0.316 µM) | IC50 (second compound 1 µM)
inactive: viability, T/C [1] 124% | viability, T/C [2] 91.1% | viability, T/C [3] 121% | viability, T/C [4] 102% | viability, T/C [5] 121% | viability, T/C [6] 94.1% | viability, T/C [7] 107% | viability, T/C [8] 98.8% | viability, T/C [9] 104% | viability, T/C [10] 88.1% | viability, T/C [11] 81.1% | viability, T/C [12] 97% | viability, T/C [13] 79% | viability, T/C [14] 114% | viability, T/C [15] 94.2% | viability, T/C [16] 110% | viability, T/C [17] 99% | viability, T/C [18] 104% | viability, T/C [19] 70.2% | viability, T/C [20] 95% | viability, T/C [21] 79.2% | viability, T/C [22] 81.4% | viability, T/C [23] 83.4% | viability, T/C [24] 59.8% | viability, T/C [25] 44.6% | viability, T/C [26] 41.3% | viability, T/C [27] 45% | viability, T/C [28] 41.8% | viability, T/C [29] 33.1% | viability, T/C [30] 26.9% | viability, T/C [31] 18.7% | viability, T/C [32] 17.3% | viability, T/C [33] 18.1% | viability, T/C [34] 19.2% | viability, T/C [35] 19.1% | viability, T/C [36] 14.4%
> 10 µM: IC50 (second compound 0.00316 µM) | IC50 (second compound 0.01 µM) | IC50 (second compound 0.0316 µM) | IC50 (second compound 0.1 µM)

C=CC(=O)N1CCN(c2nc(=O)n(-c3c(C)ccnc3C(C)C)c3nc(-c4c(O)cccc4F)c(F)cc23)C(C)C1 (stereo unspecified) + COc1c(OCCCN2CCOCC2)ccc2c3n(c(=NC(=O)c4cnc(N)nc4)nc12)CCN3
> 10 µM: IC50 (second compound 0.00316 µM) | IC50 (second compound 0.01 µM) | IC50 (second compound 0.0316 µM) | IC50 (second compound 0.1 µM)
< 0.0316 µM: IC50 (second compound 0.316 µM) | IC50 (second compound 1 µM)
inactive: viability, T/C [1] 92.6% | viability, T/C [2] 99.4% | viability, T/C [3] 107% | viability, T/C [4] 98.4% | viability, T/C [5] 103% | viability, T/C [6] 120% | viability, T/C [7] 94.6% | viability, T/C [8] 100% | viability, T/C [9] 82.8% | viability, T/C [10] 96.1% | viability, T/C [11] 98% | viability, T/C [12] 117% | viability, T/C [13] 90.6% | viability, T/C [14] 90.1% | viability, T/C [15] 108% | viability, T/C [16] 108% | viability, T/C [17] 94.7% | viability, T/C [18] 97.3% | viability, T/C [19] 81.4% | viability, T/C [20] 98.1% | viability, T/C [21] 73.1% | viability, T/C [22] 85.6% | viability, T/C [23] 85% | viability, T/C [24] 93.2% | viability, T/C [25] 36.9% | viability, T/C [26] 37.9% | viability, T/C [27] 51.2% | viability, T/C [28] 46.7% | viability, T/C [29] 37.2% | viability, T/C [30] 48.5% | viability, T/C [31] 17.9% | viability, T/C [32] 21.1% | viability, T/C [33] 21.7% | viability, T/C [34] 20.7% | viability, T/C [35] 22.7% | viability, T/C [36] 20.9%

CC(Cn1ccc(-c2ccc(C#N)c(Cl)c2)n1)NC(=O)c1cc(C(C)O)[nH]n1 (stereo unspecified) + COc1c(OCCCN2CCOCC2)ccc2c3n(c(=NC(=O)c4cnc(N)nc4)nc12)CCN3
> 10 µM: IC50 (second compound 0.00316 µM) | IC50 (second compound 0.01 µM) | IC50 (second compound 0.0316 µM) | IC50 (second compound 0.1 µM)
inactive: viability, T/C [1] 85.6% | viability, T/C [2] 112% | viability, T/C [3] 124% | viability, T/C [4] 94.6% | viability, T/C [5] 92.2% | viability, T/C [6] 114% | viability, T/C [7] 91.3% | viability, T/C [8] 104% | viability, T/C [9] 117% | viability, T/C [10] 115% | viability, T/C [11] 105% | viability, T/C [12] 108% | viability, T/C [13] 90.7% | viability, T/C [14] 114% | viability, T/C [15] 113% | viability, T/C [16] 101% | viability, T/C [17] 108% | viability, T/C [18] 89.3% | viability, T/C [19] 79.4% | viability, T/C [20] 95% | viability, T/C [21] 81.5% | viability, T/C [22] 94.3% | viability, T/C [23] 84.8% | viability, T/C [24] 87% | viability, T/C [25] 40.8% | viability, T/C [26] 33.2% | viability, T/C [27] 49% | viability, T/C [28] 39.2% | viability, T/C [29] 42.5% | viability, T/C [30] 48.1% | viability, T/C [31] 21.3% | viability, T/C [32] 23.5% | viability, T/C [33] 22.9% | viability, T/C [34] 22% | viability, T/C [35] 24.3% | viability, T/C [36] 25.2%
< 0.0316 µM: IC50 (second compound 0.316 µM) | IC50 (second compound 1 µM)

— PubChem BioAssay AID1963972 (Molecular Pharmacology Branch, DTP, NCI, 2024)
